Data reported in patent US20260176289A1, “SMALL MOLECULE INHIBITORS OF KRAS PROTEINS” (Merck Sharp & Dohme LLC, priority 2022, published 2026).

Experiments:
Assay type in all cases: biochemical
[1] = target: T1, KRAS G12C (amino acids 1-169) (Homo sapiens, UniProt P01116, G12C); assay: SOS-catalyzed nucleotide exchange assay (Procedure B, BODIPY FL GDP displacement), KRAS G12C; conditions: read-out: KRAS G12C GNE IC50
T1 construct: made in house; host or cells: E. coli
Method: (§1) Procedure for SOS-Catalyzed Nucleotide Exchange Assay for KRAS-G12C/D/V/WT (Procedure B)
(§2) Recombinant KRAS G12C (amino acids 1-169, SEQ ID NO:9), KRAS G12D (amino acids 1-169, SEQ ID NO: 10), KRAS G12V (amino acids 1-169, SEQ ID NO: 11), KRAS WT (amino acids 1-169, SEQ ID NO:12) and SOS1 (amino acids 564-1049, SEQ ID NO: 13) proteins were expressed in E. coli and purified by affinity chromatography. To prepare each BODIPY™ FL GDP-bound KRAS protein, 50 μM KRAS proteins were incubated with 0.5 mM BODIPY™ FL GDP (Invitrogen, G22360) in a loading buffer (20 mM Tris-HCl pH 7.5, 50 mM NaCl, 1 mM DTT and 2.5 mM EDTA) for 1 hour on ice. After the incubation, MgCl2 was added to a final concentration of 10 mM, followed by an incubation at room temperature for 30 minutes. The mixtures were allowed to pass through a NAP-5 column to remove free nucleotides and purified BODIPY™ FL GDP-bound KRAS G12C, G12D, G12V and WT proteins were used for compound evaluation.
(§3) The inhibitory activity of compounds on recombinant KRAS is measured by the displacement of the bound BODIPY™ GDP. Specifically, 2.5 nM of each BODIPY™ FL GDP-bound KRAS complex was incubated with various concentrations of compound in a reaction buffer (20 mM Tris-HCl pH 7.5, 100 mM NaCl, 1 mM MgCl2, 2 mM DTT, 0.1% Tween 20) at 25° C. for 1 hour. After the incubation, recombinant SOS1 and GMPPNP (Jena Bioscience GmbH, NU-401) were added and incubated at room temperature for 30 minutes to proceed SOS1-dependent GDP-GTP exchange reaction on KRAS. Displacement of BODIPY™ FL GDP by Guanosine-5′-[(β,γ)-imido]triphosphate, Tetralithium salt (GMPPNP) was measured by calculating the ratio of fluorescence intensities of BODIPY™ FL before and after the exchange reaction. Percent Inhibition was calculated by setting the fluorescence ratio from the reaction without test compound (DMSO control) and the fluorescence ratio from the reaction without SOS1 and GMPPNP as 0% and 100% inhibition, respectively. Dose response curves were analyzed using a 4-parameter logistic model to calculate IC50 values.

[2] = target: T2, KRAS WT (amino acids 1-169) (Homo sapiens, UniProt P01116); assay: SOS-catalyzed nucleotide exchange assay (Procedure B, BODIPY FL GDP displacement), KRAS WT; conditions: read-out: KRAS WT GNE IC50
T2 construct: made in house; host or cells: E. coli
Method: as §1, §2, §3

[3] = target: T3, KRAS G12V (amino acids 1-169) (Homo sapiens, UniProt P01116, G12V); assay: SOS-catalyzed nucleotide exchange assay (Procedure B, BODIPY FL GDP displacement), KRAS G12V; conditions: read-out: KRAS G12V GNE IC50
T3 construct: made in house; host or cells: E. coli
Method: as §1, §2, §3

[4] = target: T4, KRAS G12D (amino acids 1-169) (Homo sapiens, UniProt P01116, G12D); assay: SOS-catalyzed nucleotide exchange assay (Procedure B, BODIPY FL GDP displacement), KRAS G12D; conditions: read-out: KRAS G12D GNE IC50
T4 construct: made in house; host or cells: E. coli
Method: as §1, §2, §3

T1 sequence (P01116 with tags, fused parts or gaps isoform P01116-2 G12C): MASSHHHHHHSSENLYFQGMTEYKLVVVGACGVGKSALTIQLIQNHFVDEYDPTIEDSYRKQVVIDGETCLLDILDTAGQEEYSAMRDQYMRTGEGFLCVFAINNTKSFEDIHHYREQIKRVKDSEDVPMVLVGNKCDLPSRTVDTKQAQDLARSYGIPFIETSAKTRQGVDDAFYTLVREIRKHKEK
T3 sequence (P01116 with tags, fused parts or gaps isoform P01116-2 G12V): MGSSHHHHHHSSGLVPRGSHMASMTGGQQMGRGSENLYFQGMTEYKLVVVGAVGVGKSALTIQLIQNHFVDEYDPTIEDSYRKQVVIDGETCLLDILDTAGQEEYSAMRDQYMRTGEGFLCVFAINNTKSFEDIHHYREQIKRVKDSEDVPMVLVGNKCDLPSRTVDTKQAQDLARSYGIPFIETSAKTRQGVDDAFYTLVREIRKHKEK
T4 sequence (P01116 with tags, fused parts or gaps isoform P01116-2 G12D): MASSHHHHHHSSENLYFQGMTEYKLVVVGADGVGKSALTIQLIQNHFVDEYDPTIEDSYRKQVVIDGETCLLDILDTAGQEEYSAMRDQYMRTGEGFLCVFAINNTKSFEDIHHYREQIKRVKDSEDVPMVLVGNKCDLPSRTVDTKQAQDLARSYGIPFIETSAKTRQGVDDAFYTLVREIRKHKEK
T2 sequence (P01116 with tags, fused parts or gaps isoform P01116-2): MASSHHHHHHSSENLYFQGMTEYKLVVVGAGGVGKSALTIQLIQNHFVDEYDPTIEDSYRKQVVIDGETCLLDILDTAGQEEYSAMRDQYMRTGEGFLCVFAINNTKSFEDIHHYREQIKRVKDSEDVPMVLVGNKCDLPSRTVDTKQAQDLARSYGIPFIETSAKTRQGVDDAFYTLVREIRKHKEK

Row | Structure (SMILES) | IC50 [1] | IC50 [2] | IC50 [3] | IC50 [4]
1 | C[C@@]1(O)COCCN(c2nc(OC[C@@]34CCCN3C[C@H](F)C4)nc3sc4c(-c5c6c(cc7[nH]ncc57)CCC6C5CC5)nccc4c23)C1 (stereo partly drawn) [Ex-104, (6S)-4-(8-(5-cyclopropyl-1,5,6,7-tetrahydrocyclopenta[f]in-dazol-4-yl)-2-(((2R,7aS)-2-fluorotetrahydro-1H-pyrrolizin-7a(5H)-yl)methoxy)pyrido[4′,3′:4,5]thieno[2,3-d]pyrimidin-4-yl)-6-methyl-1,4-oxazepan-6-ol] | 168 nM | 71.5 nM | 60 nM | 43.9 nM
2 | COC1c2c(cc3[nH]ncc3c2-c2nccc3c2sc2nc(OC[C@@]45CCCN4C[C@H](F)C5)nc(N4CCOC[C@@](C)(O)C4)c23)CC1(F)F (stereo partly drawn) [Ex-110, (6S)-4-(8-(6,6-difluoro-5-methoxy-1,5,6,7-tetrahydrocyclopenta[f]in-dazol-4-yl)-2-(((2R,7aS)-2-fluorotetrahydro-1H-pyrrolizin-7a(5H)-yl)methoxy)pyrido[4′,3′:4,5]thi-no[2,3-d]pyrimidin-4-yl)-6-methyl-1,4-oxazepan-6-ol] | 57.7 nM | 47.5 nM | 43 nM | 37.7 nM
3 | C[C@@]1(O)COCCN(c2nc(OC[C@@]34CCCN3C[C@H](F)C4)nc3sc4c(-c5c6c(cc7[nH]ncc57)CCC6)nccc4c23)C1 [Ex-111, (6S)-4-(2-(((2R,7aS)-2-fluorotetrahydro-1H-pyrrolizin-7a(5H)-yl)methoxy)-8-(1,5,6,7-tetrahydrocyclopenta[f]in-dazol-4-yl)pyrido[4′,3′:4,5]thieno [2,3-d]pyrimidin-4-yl)-6-methyl-1,4-oxazepan-6-ol] | 44.4 nM | 34.1 nM | 38.1 nM | 18.7 nM
4 | CC1(C)Cc2cc3[nH]ncc3c(-c3nccc4c3sc3nc(OC[C@@]56CCCN5C[C@H](F)C6)nc(N5CCOC[C@@](C)(O)C5)c34)c2C1 [Ex-112, (6S)-4-(8-(6,6-dimethyl-1,5,6,7-tetrahydrocyclopenta[f]in-dazol-4-yl)-2-(((2R,7aS)-2-fluorotetrahydro-1H-pyrrolizin-7a(5H)-yl)methoxy)pyrido[4′,3′:4,5]thi-eno[2,3-d]pyrimidin-4-yl)-6-methyl-1,4-oxazepan-6-ol] | 518 nM | 473 nM | 402 nM | 274 nM
5 | CC1Cc2cc3[nH]ncc3c(-c3nccc4c3sc3nc(OC[C@@]56CCCN5C[C@H](F)C6)nc(N5CCOC[C@@](C)(O)C5)c34)c2C1 (stereo partly drawn) [Ex-113, (6S)-4-(2-(((2R,7aS)-2-fluorotetrahydro-1H-pyrrolizin-7a(5H)-yl)methoxy)-8-(6-methyl-1,5,6,7-tetrahydrocyclopenta[f]in-dazol-4-yl)pyrido[4′,3′:4,5]thieno [2,3-d]pyrimidin-4-yl)-6-methy1-1,4-oxazepan-6-ol] | 177 nM | 150 nM | 123 nM | 88.5 nM
6 | Cc1cc2[nH]ncc2c(-c2nccc3c2sc2nc(OC[C@@]45CCCN4C[C@H](F)C5)nc(N4CCOC[C@@](C)(O)C4)c23)c1C(C)C [Ex-137, (6S)-4-(2-(((2R, 7aS)-2-fluorotetra-hydro-1H-pyrrol-izin-7a(5H)-yl)meth-oxy)-8-(5-isopropyl-6-methyl-1H-ind-azol-4-yl)pyrido [4′,3′:4,5]thieno[2,3-d]pyrimidin-4-yl)-6-methyl-1,4-oxaze-pan-6-ol] | 40.1 nM | 58 nM | 66.7 nM | 32.6 nM
7 | Cc1cc2[nH]nc(I)c2c(-c2nccc3c2sc2nc(OC[C@@]45CCCN4C[C@H](F)C5)nc(N4CCOC[C@@](C)(O)C4)c23)c1C(F)(F)F [Ex-149, (6S)-4-(2-(((2R,7aS)-2-fluorotetrahydro-1H-pyrrolizin-7a(5H)-yl)methoxy)-8-(3-iodo-6-methyl-5-(trifluoromethyl)-1H-indazol-4-yl)pyrido[4′,3′:4,5]thieno[2,3-d]pyrimidin-4-yl)-6-methyl-1,4-oxazepan-6-ol] | 1920 nM | 1350 nM | 2370 nM | 1470 nM
8 | C#Cc1n[nH]c2cc(C)c(C(F)(F)F)c(-c3nccc4c3sc3nc(OC[C@@]56CCCN5C[C@H](F)C6)nc(N5CCOC[C@@](C)(O)C5)c34)c12 [Ex-151, (6S)-4-(8-(3-ethynyl-6-methyl-5-(trifluoromethyl)-1H-indazol-4-yl)-2-(((2R,7aS)-2-fluorotetrahydro-1H-pyrrolizin-7a(5H)-yl)methoxy)pyrido[4′,3′:4,5]thieno[2,3-d]pyrimidin-4-yl)-6-methyl-1,4-oxazepan-6-ol] | 572 nM | 690 nM | 1180 nM | 393 nM
9 | C#Cc1c(Cl)cc2[nH]ncc2c1-c1nccc2c1sc1nc(OC[C@@]34CCCN3C[C@H](F)C4)nc(N3CCOC[C@@](C)(O)C3)c12 [Ex-158, (6S)-4-(8-(6-chloro-5-ethynyl-1H-indazol-4-yl)-2-(((2R,7aS)-2-fluorotetrahydro-1H-pyrrolizin-7a(5H)-yl)methoxy)pyrido[4′,3′:4,5]thieno[2,3-d]pyrimidin-4-yl)-6-methyl-1,4-oxazepan-6-ol] | 15.4 nM | 26.9 nM | 15.5 nM | 7.18 nM
10 | C#CC1CCc2cc3[nH]ncc3c(-c3nccc4c3sc3nc(OC[C@@]56CCCN5C[C@H](F)C6)nc(N5CCOC[C@@](C)(O)C5)c34)c21 (stereo partly drawn) [Ex-166, (6S)-4-(8-(5-ethyn-yl-1,5,6,7-tetrahydro-cyclopenta[f]indazol-4-yl)-2-(((2R,7aS)-2-fluorotetrahydro-1H-pyrrolizin-7a(5H)-yl)methoxy)-pyrido[4′,3′:4,5]thieno[2,3-d]pyr-imidin-4-yl)-6-meth-yl-1,4-oxazepan-6-ol] | 18 nM | 12.4 nM | 15.8 nM | 6.65 nM
11 | Cc1cc2[nH]ncc2c(-c2nccc3c2sc2nc(OC[C@@]45CCCN4C[C@H](F)C5)nc(NC45CC(C4)C5)c23)c1C(F)(F)F [Ex-181, N-(bicyclo[1.1.1]pentan-1-yl)-2-(((2R,7aS)-2-fluoro-tetrahydro-1H-pyrrolizin-7a(5H)-yl)-methoxy)-8-(6-methyl-5-(trifluoromethyl)-1H-indazol-4-yl)pyrido [4′,3′:4,5]thieno[2,3-d] pyrimidin-4-amine] | 787 nM | 1480 nM | 758 nM | 1320 nM
12 | Cc1cc2[nH]ncc2c(-c2nccc3c2sc2nc(OC[C@@]45CCCN4C[C@H](F)C5)nc(N4CCOCC(C)C4)c23)c1C(F)(F)F (stereo partly drawn) [Ex-182, 4-(2-(((2R,7aS)-2-fluoro-tetrahydro-1H-pyrrolizin-7a(5H)-yl)methoxy)-8-(6-methyl-5-(trifluorometh-yl)-1H-indazol-4-yl)pyrido [4′,3′:4,5]thieno[2,3-d]pyr-imidin-4-yl)-6-methyl-1,4-oxazepane] | 1260 nM | 2190 nM | 3200 nM | 3630 nM
13 | Cc1cc2[nH]ncc2c(-c2nccc3c2sc2nc(OC[C@@]45CCCN4C[C@H](F)C5)nc(N4C[C@H](O)C[C@H]4C)c23)c1C(F)(F)F [Ex-183, (3R,5R)-1-(2-(((2R,7aS)-2-fluorotetrahydro-1H-pyrrolizin-7a(5H)-yl)methoxy)-8-(6-methyl-5-(trifluoromethyl)-1H-indazol-4-yl)pyrido[4′,3′: 4,5]thieno[2,3-d]pyrimi-din-4-yl)-5-methylpyrrol-idin-3-ol] | 2880 nM | 2990 nM | 4640 nM | 2190 nM
14 | Cc1cc2[nH]ncc2c(-c2nccc3c2sc2nc(OC[C@@]45CCCN4C[C@H](F)C5)nc(N)c23)c1C(F)(F)F [Ex-189, 2-(((2R,7aS)-2-fluoro-tetrahydro-1H-pyrrolizin-7a(5H)-yl)methoxy)-8-(6-methyl-5-(trifluoromethyl)-1H-indazol-4-yl)pyrido [4′,3′:4,5]thieno[2,3-d] pyrimidin-4-amine] | 1360 nM | 2250 nM | 2200 nM | 3010 nM
